Data set [1] can be described thus: human metabolic stability half-life assay. The settings on record: microsomes, human liver microsomes. How it is done:
Metabolic Stability Half-Life Panel
Incubation with Liver Microsomes
On the technique in general: Liver microsomes are vesicles of endoplasmic reticulum, rich in cytochrome P450 enzymes.

In the next data set the test system is human Notch 1. In words: Notch-CBF1 Transactivation Assay (Notch 1). It counts as cell-based. The conditions noted are these: read-out: Notch 1 IC50; Notch-CBF1 transactivation luciferase assay in transfected HeLa cells; some values are an average of N experiments. An excerpt: (§1) Notch-CBF1 Transactivation Assay
(§2) The Notch-CBF1 (C-promoter binding factor I) cell based transactivation assay is based on the ability of the released Notch intracellular domain fragments (NICDs) to function as transcription factors in conjunction with CBF1 and other nuclear factors. Luciferase assays were used to measure the antagonism of Notch-CBF1 transcriptional activity. HeLa cervical cancer cells are transiently co-transfected with pCDNA3.1/Hygro plasmids containing truncated Notch 1, Notch 2, Notch 3, or Notch 4 receptors and a PGL3 luciferase reporter vector containing 4 copies of CBF1 binding site. The cells were then tested for Notch-CBF1 activity in the absence or presence of test compounds. HeLa cells, maintained in DMEM (high glucose with HEPES), 1× glutamine/penicillin/streptomycin and 10% Fetal Bovine serum, were transiently transfected in a T175 Flask (4.5×10^6 cells/flask) using the Monster Transfection Kit (Minis #MIR2906) according to manufacturers specifications. Table 13 denotes respective DNA quantity for the transfections.
(§3) Assay media (5 μL) containing test compounds in final concentrations ranging from 5 μM to 8.4×10^−5 μM (3 fold serial dilutions) were added to the cells and the cell plates were then incubated for 18 hours at 37° C. and 5% CO2. Control wells contained DMSO vehicle (total counts) or 0.5 μM of an in-house small molecule inhibitor (background counts). Duplicates were used for each sample. Luciferase activity was measured after a 20-minute incubation with 50 μl STEADY-GLO® luciferase reagents according to manufacturer's specifications (Promega, Cat. #E2550) and analyzed by Envision plate reader (PerkinElmer, Boston, Mass.).
(§4) The antagonist effect of compounds was expressed as 100×[1−(average sample−average background)/(average total−average background)] where sample is the luciferase activity in the presence of test compound, background is equal to the luciferase activity in the presence of the small molecule inhibitor control and the total is signal induced in DMSO wells.

The next data set concerns human Notch 3. In words: Notch-CBF1 Transactivation Assay (Notch 3). The format is cell-based. The settings on record: read-out: Notch 3 IC50; Notch-CBF1 transactivation luciferase assay in transfected HeLa cells; some values are an average of N experiments.
Text: as §1, §2, §3, §4

Where [2] appears, read: pH 7.4, CYP-mediated metabolic stability half life, NADPH-dependent.
Setting [3] is: pH 7.4, HLM (t1/2, min), CYP-mediated (NADPH-dependent), 0.5 μM compound, 45 min time course, some values are an average of N experiments.

In general, half-life refers to the time in which the quantity being followed falls by half. Low readings indicate rapid decline, high ones slow decline. Broadly, the pIC50 is the IC50 on a negative log10 scale, so that one unit is a factor of ten.

The structures appear in SMILES notation. pIC50: −log10 of the molar value.

For `COc1cccc2c1NC(=O)[C@@H](NC(=O)[C@H](CCC(F)(F)F)[C@H](CC1CC1)C(N)=O)N=C2c1cccc(F)c1` [Example 4, (2R,3S)-3-(Cyclopropylmethyl)-N-((3S)-5-(3-fluorophenyl)-9-methoxy-2-oxo-2,3-dihydro-1H-1,4-benzodiazepin-3-yl)-2-(3,3,3-trifluoropropyl)succinamide], the half-life at 0.5 µM in data set [1] (setting [2]) was no less than 30 min; in data set [1] (setting [3]), 83 min. Also, the pIC50 is 8.38 with human Notch 1 and 8.09 with human Notch 3.

Regarding `Cc1cccc(C2=N[C@H](NC(=O)[C@H](CCC(F)(F)F)[C@H](CC3CC3)C(N)=O)C(=O)Nc3c(F)cccc32)c1` [Example 19, (2R,3S)-3-(Cyclopropylmethyl)-N-((3S)-9-fluoro-5-(3-methylphenyl)-2-oxo-2,3-dihydro-1H-1,4-benzodiazepin-3-yl)-2-(3,3,3-trifluoropropyl)succinamide], the half-life at 0.5 µM is no less than 30 min in data set [1] (setting [2]) and 56 min in data set [1] (setting [3]). Moreover, the figures for the pIC50 in the data set with human Notch 1 and with human Notch 3 were 8.57 and 8.14, respectively.

With `COc1cccc(C2=N[C@H](NC(=O)[C@H](CCC(F)(F)F)[C@H](CC3CC3)C(N)=O)C(=O)Nc3c(F)cccc32)c1` [Example 22, (2R,3S)-3-(Cyclopropylmethyl)-N-((3S)-9-fluoro-5-(3-methoxyphenyl)-2-oxo-2,3-dihydro-1H-1,4-benzodiazepin-3-yl)-2-(3,3,3-trifluoropropyl)succinamide], the half-life at 0.5 µM in data set [1] (setting [2]) is no less than 30 min; in data set [1] (setting [3]) it was 32 min. Also, the pIC50 with human Notch 1 is 7.89; in the data set with human Notch 3 it was 7.90.

As to `CCC[C@H](C(N)=O)[C@@H](CCC(F)(F)F)C(=O)N[C@H]1N=C(c2ccc(Cl)cc2)c2cccc(Cl)c2NC1=O` [Example 28, (2R,3S)—N-((3S)-9-Chloro-5-(4-chlorophenyl)-2-oxo-2,3-dihydro-1H-1,4-benzodiazepin-3-yl)-3-propyl-2-(3,3,3-trifluoropropyl)succinamide], the half-life at 0.5 µM was no less than 30 min in data set [1] (setting [2]) and 39 min in data set [1] (setting [3]). The pIC50 with human Notch 1 and in the data set on human Notch 3 was 8.77 in each case.

`Cc1cccc(C2=N[C@H](NC(=O)[C@H](CCC(F)(F)F)[C@H](CC3CC3)C(N)=O)C(=O)Nc3c(Cl)cccc32)c1` [Example 30, (2R,3S)—N-((3S)-9-Chloro-5-(3-methylphenyl)-2-oxo-2,3-dihydro-1H-1,4-benzodiazepin-3-yl)-3-(cyclopropylmethyl)-2-(3,3,3-trifluoropropyl)succinamide]: the half-life at 0.5 µM is no less than 30 min in data set [1] (setting [2]) and 74 min in data set [1] (setting [3]). For the same compound, the pIC50 in the data set with human Notch 1 was 8.60; in the data set on human Notch 3, 8.28.

On to `Cc1ccc2c(c1F)NC(=O)[C@@H](NC(=O)[C@H](CCC(F)(F)F)[C@H](CC1CC1)C(N)=O)N=C2c1ccccc1` [Example 18, (2R,3S)-3-(Cyclopropylmethyl)-N-((3S)-9-fluoro-8-methyl-2-oxo-5-phenyl-2,3-dihydro-1H-1,4-benzodiazepin-3-yl)-2-(3,3,3-trifluoropropyl)succinamide], for which the half-life at 0.5 µM in data set [1] (setting [2]) was no less than 30 min; in data set [1] (setting [3]) it was greater than 120 min. The pIC50 is 8.19 in the data set with human Notch 1 and 8.16 with human Notch 3.

On to `CCC[C@H](C(N)=O)[C@@H](CCC(F)(F)F)C(=O)N[C@H]1N=C(c2ccccc2)c2cccc(O)c2NC1=O` [Example 41, (2R,3S)—N-((3S)-9-Hydroxy-2-oxo-5-phenyl-2,3-dihydro-1H-1,4-benzodiazepin-3-yl)-3-propyl-2-(3,3,3-trifluoropropyl)succinamide], for which the half-life at 0.5 µM in data set [1] (setting [2]) was no less than 30 min; in data set [1] (setting [3]), 45 min. Also, the pIC50 was 8.04 with human Notch 1 and 7.91 in the data set with human Notch 3.

For `Cc1cccc2c1NC(=O)[C@@H](NC(=O)[C@H](CCC(F)(F)F)[C@H](CC1CC1)C(N)=O)N=C2c1cccc(C(F)(F)F)c1` [Example 9, (2R,3S)-3-(Cyclopropylmethyl)-N-((3S)-9-methyl-2-oxo-5-(3-(trifluoromethyl)phenyl)-2,3-dihydro-1H-1,4-benzodiazepin-3-yl)-2-(3,3,3-trifluoropropyl)succinamide], the half-life at 0.5 µM in data set [1] (setting [2]) was no less than 30 min; in data set [1] (setting [3]), 90 min. The pIC50 in the data set with human Notch 1 was 8.74; in the data set with human Notch 3, 8.31.

For `NC(=O)[C@@H](CC1CC1)[C@@H](CCC(F)(F)F)C(=O)N[C@H]1N=C(c2cccc(F)c2)c2cccc(F)c2NC1=O` [Example 23, (2R,3S)-3-(Cyclopropylmethyl)-N-((3S)-9-fluoro-5-(3-fluorophenyl)-2-oxo-2,3-dihydro-1H-1,4-benzodiazepin-3-yl)-2-(3,3,3-trifluoropropyl)succinamide], the half-life at 0.5 µM in data set [1] (setting [2]) was no less than 30 min; in data set [1] (setting [3]), 69 min. For the same compound, the results for the pIC50 with human Notch 1 and with human Notch 3 were 8.32 and 8.10, respectively.

Regarding `COc1cccc2c1NC(=O)[C@@H](NC(=O)[C@H](CCC(F)(F)F)[C@H](CC1CC1)C(N)=O)N=C2c1ccccc1` [Example 38, (2R,3S)-3-(Cyclopropylmethyl)-N-((3S)-9-methoxy-2-oxo-5-phenyl-2,3-dihydro-1H-1,4-benzodiazepin-3-yl)-2-(3,3,3-trifluoropropyl)succinamide], the half-life at 0.5 µM was no less than 30 min in data set [1] (setting [2]) and 70 min in data set [1] (setting [3]). Moreover, the pIC50 was 8.64 with human Notch 1 and 8.48 in the data set on human Notch 3.

Turning to `NC(=O)[C@@H](CC1CC1)[C@@H](CCC(F)(F)F)C(=O)N[C@H]1N=C(c2ccccc2)c2cccc(C(F)(F)F)c2NC1=O` [Example 36, (2R,3S)-3-(Cyclopropylmethyl)-N-((3S)-2-oxo-5-phenyl-9-(trifluoromethyl)-2,3-dihydro-1H-1,4-benzodiazepin-3-yl)-2-(3,3,3-trifluoropropyl)succinamide], the half-life at 0.5 µM in data set [1] (setting [2]) was no less than 30 min; in data set [1] (setting [3]), greater than 120 min. Also, the results for the pIC50 with human Notch 1 and in the data set on human Notch 3 were 8.10 and 8.08, respectively.

Consider `COc1cccc2c1NC(=O)[C@@H](NC(=O)[C@H](CCC(F)(F)F)[C@H](CC1(C)CC1)C(N)=O)N=C2c1ccccc1` [Example 33, (2R,3S)—N-((3S)-9-Methoxy-2-oxo-5-phenyl-2,3-dihydro-1H-1,4-benzodiazepin-3-yl)-3-((1-methylcyclopropyl)methyl)-2-(3,3,3-trifluoropropyl)succinamide], for which the results for the half-life at 0.5 µM in data set [1] (setting [2]) and in data set [1] (setting [3]) were no less than 30 min and 47 min, respectively. Moreover, the pIC50 was 8.42 in the data set on human Notch 1 and 8.23 in the data set on human Notch 3.

In the case of `Cc1cc(F)c2c(c1)C(c1ccccc1)=N[C@H](NC(=O)[C@H](CCC(F)(F)F)[C@H](CC1CC1)C(N)=O)C(=O)N2` [Example 17, (2R,3S)-3-(Cyclopropylmethyl)-N-((3S)-9-fluoro-7-methyl-2-oxo-5-phenyl-2,3-dihydro-1H-1,4-benzodiazepin-3-yl)-2-(3,3,3-trifluoropropyl)succinamide], the half-life at 0.5 µM in data set [1] (setting [2]) is no less than 30 min; in data set [1] (setting [3]), 60 min. Moreover, the pIC50 with human Notch 1 was 8.01; with human Notch 3, 7.58.

On to `COc1cccc2c1NC(=O)[C@@H](NC(=O)[C@H](CCC(F)(F)F)[C@H](CC1CC1)C(N)=O)N=C2c1cccc(C(F)(F)F)c1` [Example 2, (2R,3S)-3-(Cyclopropylmethyl)-N-((3S)-9-methoxy-2-oxo-5-(3-(trifluoromethyl)phenyl)-2,3-dihydro-1H-1,4-benzodiazepin-3-yl)-2-(3,3,3-trifluoropropyl)succinamide], for which the half-life at 0.5 µM in data set [1] (setting [2]) is no less than 30 min; in data set [1] (setting [3]) it was 46 min. Further, the results for the pIC50 in the data set on human Notch 1 and in the data set on human Notch 3 were 8.77 and 8.82, respectively.

On to `CCC[C@H](C(N)=O)[C@@H](CCC(F)(F)F)C(=O)N[C@H]1N=C(c2ccccc2)c2cccc(Cl)c2NC1=O` [Example 43, (2R,3S)—N-((3S)-9-Chloro-2-oxo-5-phenyl-2,3-dihydro-1H-1,4-benzodiazepin-3-yl)-3-propyl-2-(3,3,3-trifluoropropyl)succinamide], for which the results for the half-life at 0.5 µM in data set [1] (setting [2]) and in data set [1] (setting [3]) were no less than 30 min and 30 min, respectively. The pIC50 in the data set on human Notch 1 was 8.48; in the data set with human Notch 3, 8.32.

On to `Cc1cccc2c1NC(=O)[C@@H](NC(=O)[C@H](CCC(F)(F)F)[C@H](CC1CC1)C(N)=O)N=C2c1ccc(F)cc1` [Example 12, (2R,3S)-3-(Cyclopropylmethyl)-N-((3S)-5-(4-fluorophenyl)-9-methyl-2-oxo-2,3-dihydro-1H-1,4-benzodiazepin-3-yl)-2-(3,3,3-trifluoropropyl)succinamide], for which the half-life at 0.5 µM in data set [1] (setting [2]) is no less than 30 min; in data set [1] (setting [3]), 104 min. In addition, the figures for the pIC50 in the data set on human Notch 1 and with human Notch 3 were 8.16 and 7.55, respectively.

These data come from patent publication US9242941B2, “Alkyl, fluoroalkyl-1,4-benzodiazepinone compounds” (BRISTOL-MYERS SQUIBB COMPANY, priority 2012, dated 2016).
